In patent publication US20090197878A1, “SUBSTITUTED BENZO[d][1,3]OXAZIN-2(4H)-ONES AND RELATED DERIVATIVES AND THEIR USES FOR MODULATING THE PROGESTERONE RECEPTOR” (Wyeth, priority 2008, published 2009):

Legend:
[1] = system: alkaline phosphatase activity in T47D cells; assay: Effects of progestins and antiprogestins on alkaline phosphatase activity in T47D cells; assay type: cell-based; details: Homo sapiens; for IC50: antagonist mode in the presence of 1 nM progesterone, 24 hours
Procedure: The purpose of this example is to identify progestins or antiprogestins by determining a compound's effect on alkaline phosphatase activity in T47D cells.
A. Reagents: • Culture medium: Dulbecco's Modified Eagle Medium (DMEM):F12 (1:1) (GIBCO, BRL) supplemented with 5% (v/v) charcoal stripped fetal bovine serum (not heat-inactivated), 100 U/mL penicillin, 100 μg/mL streptomycin, and 2 mM of the GlutaMax® reagent (GIBCO, BRL). • Alkaline phosphatase assay buffer: • I. 0.1M Tris-HCl, pH 9.8, containing 0.2% Triton® X-100 reagent • II. 0.1M Tris-HCl, pH 9.8, containing 4 mM p-nitrophenyl phosphate (Sigma).
Frozen T47D cells are thawed in a 37° C. water bath and diluted to 280,000 cells/mL in culture medium. To each well in a 96-well plate (Falcon, Becton Dickinson Labware), was added 180 μL of diluted cell suspension. Twenty μL of reference or test compounds diluted in the culture medium is then added to each well. When testing for progestin antagonist activity, reference antiprogestins or test compounds are added in the presence of 1 nM progesterone. The cells are incubated at 37° C. in a 5% CO2/humidified atmosphere for 24 hours. For high throughput screening, one concentration of each compound will be tested at 0.3 μg/mL. Based on an average molecular weight of 300 g/mol for the compounds in the library, the concentration is approximately 1 μM. Compounds active in this assay can be tested in dose response assays to determine EC50 and IC50.
C. Alkaline Phosphatase Enzyme Assay: • At the end of treatment, the medium is removed from the plate. Fifty μL of assay buffer I is added to each well. The plates are shaken in a titer plate shaker for 15 minutes. Then 150 μL of assay buffer II is added to each well. Optical density measurements are taken at 5 minute intervals for 30 minutes at a test wavelength of 405 nm.
D. Analysis of Results: Analysis of Dose-Response Data • For reference and test compounds, a dose response curve is generated for dose (X-axis) vs. the rate of enzyme reaction (slope) (Y-axis). Square root-transformed data are used for analysis of variance and nonlinear dose response curve fitting for both agonist and antagonist modes. Huber weighting is used to down-weight the effects of outliers. EC50 or IC50 values are calculated from the retransformed values. JMP® software (SAS Institute, Inc.) is used for both one-way analysis of variance and non-linear dose response analysis in both single dose and dose response studies.
E. Reference Compounds • Progesterone and trimegestone are reference progestins and RU486 is the reference antiprogestin. All reference compounds are run in full dose response curves and the EC50 and IC50 values are calculated.

[2] = molecular target: T1, progesterone receptor (PR) (Homo sapiens, UniProt P06401); assay: Progesterone receptor whole cell competition binding assay using T47D cells; details: intact T47D cells, 3 nM 3H-progesterone, 3 hours at 37° C.
T1 construct: in live, intact (whole) cells, using the human breast carcinoma T47D cell line; endogenous in cells; host or cells: T47D human breast carcinoma cells
T1 sequence (P06401 1-933): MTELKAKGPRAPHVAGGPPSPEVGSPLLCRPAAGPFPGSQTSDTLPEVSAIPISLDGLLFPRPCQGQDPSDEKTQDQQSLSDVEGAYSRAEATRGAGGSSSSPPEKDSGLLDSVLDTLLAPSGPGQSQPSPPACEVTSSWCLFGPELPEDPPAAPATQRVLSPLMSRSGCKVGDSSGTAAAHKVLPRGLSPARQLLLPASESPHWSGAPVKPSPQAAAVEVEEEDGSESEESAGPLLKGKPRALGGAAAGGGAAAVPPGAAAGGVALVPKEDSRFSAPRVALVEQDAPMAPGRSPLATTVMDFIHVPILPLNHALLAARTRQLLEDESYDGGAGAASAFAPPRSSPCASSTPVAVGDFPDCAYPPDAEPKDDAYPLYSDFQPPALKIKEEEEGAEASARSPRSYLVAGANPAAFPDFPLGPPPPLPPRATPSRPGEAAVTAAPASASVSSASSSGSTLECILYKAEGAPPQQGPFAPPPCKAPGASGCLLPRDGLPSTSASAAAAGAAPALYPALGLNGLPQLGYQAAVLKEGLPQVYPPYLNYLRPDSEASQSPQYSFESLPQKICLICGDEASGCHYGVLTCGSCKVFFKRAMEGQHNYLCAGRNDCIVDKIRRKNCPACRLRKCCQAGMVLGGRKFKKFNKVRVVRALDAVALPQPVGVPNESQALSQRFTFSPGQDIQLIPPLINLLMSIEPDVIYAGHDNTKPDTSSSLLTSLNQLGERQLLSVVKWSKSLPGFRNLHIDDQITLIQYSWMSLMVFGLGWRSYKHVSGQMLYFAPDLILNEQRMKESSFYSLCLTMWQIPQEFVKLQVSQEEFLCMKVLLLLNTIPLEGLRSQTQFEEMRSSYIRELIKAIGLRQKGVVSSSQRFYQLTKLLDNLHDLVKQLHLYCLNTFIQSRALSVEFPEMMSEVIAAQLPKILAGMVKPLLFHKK
Procedure: The purpose of this example is to evaluate the progesterone receptor (PR) binding activity of progestins or antiprogestins in live, intact (whole) cells, using the human breast carcinoma T47D cell line and ^3H-progesterone as the labeled ligand.
A. Reagents: • Culture medium: • (i) 5% RC which is phenol red free Dulbecco's Modified Eagles Medium (DMEM):F12 (1:1) (GIBCO, BRL) supplemented with 5% (v/v) charcoal stripped fetal bovine serum (not heat-inactivated), 100 U/mL penicillin, 100 μg/mL streptomycin, and 2 mM of the GlutaMax™ reagent (GIBCO, BRL) • (ii) 10% RC is 5% RC supplemented with 10% (v/v) FBS • ^3H-Progesterone: Perkin Elmer Life Science, cat# NET-381 (typically around 102 Ci/mmol) • Liquid Scintillation Cocktail: Beckman Coulter, the Ready-Safe™ reagent; cat# 141349 • Tissue Culture Plates: 96 well, clear bottom, white, plates (VWR Part # 29443-150 or Perkin Elmer Part # 3983498)
B. T47D Cell Culture: • T47D cells are maintained in 10% RC media at 37° C. in a 5% CO2/humidified atmosphere and need to be split twice weekly for proper response. Cells are plated in 10% RC the day before binding assay at 50,000 cells per well in the white, clear bottom plates purchased through VWR or Perkin Elmer.
Cells plated the day prior to the assay in white clear bottom plates are used. A master compound plate is set up containing control and test compounds at 20X final desired concentration for the competition binding. A typical dose range of 20X concentrations are (in nM); 200,000; 20,000; 6000; 2000; 600; 200; 20; and 2. Final concentrations are then (in nM); 10,000; 1000; 300; 100; 30; 10; 1; 0.1. Control compounds are typically run 10-fold lower than this and include a 0, or vehicle, control well. A stock of 60 nM ^3H-progesterone (20X) is also prepared at a volume needed of 10 μL per well.
Media on cells are replaced with 180 μL of 5% RC. Ten microliters (10 μL) of 60 nM ^3H-progesterone (for final concentration of 3 nM) is added immediately followed by 10 μL of 20X test or control compounds. Compounds are incubated for 3 hours at 37° C. A time course study found no difference between 2 and 4 hours incubation.
Following incubation, media is carefully removed and cells are washed 3X with 200 μL 5% RC each wash. Fifty microliters of liquid scintillation cocktail is added and the plates are shaken vigorously for a minimum of 15 minutes. Plates are read on the Wallac Microbeta® 1450 plate reader.
D. Analysis of Results: • Square root-transformed data are used for analysis of variance and calculation of IC50. SAS software (SAS Institute, Inc.) is used for all the statistical analysis.
E. Reference Compounds: • Progesterone is used as a reference progestin and RU486 as a reference antiprogestin.

CC1(C)OC(=O)Nc2ccc(/C(=C/C#N)c3ccccc3)cc21 [Example 6, (2E)-3-(4,4-Dimethyl-2-oxo-1,4-dihydro-2H-3,1-benzoxazin-6-yl)-3-phenylacrylonitrile]
IC50 [1]: 80.3 nM
IC50 [2]: 82.5 nM
melting point: 205 to 206 °C

COC(=O)/C=C(\C)c1ccc2c(c1)C(C)(C)OC(=O)N2 [Example 9, Methyl(2E)-3-(4,4-dimethyl-2-oxo-1,4-dihydro-2H-3,1-benzoxazin-6-yl)but-2-enoate]
IC50 [1]: 61.8 nM
IC50 [2]: 84.8 nM
melting point: 131 to 132 °C

C/C(=C/C#N)c1ccc2c(c1)C(C)(C)OC(=O)N2 [Example 12, (2Z)-3-(4,4-Dimethyl-2-oxo-1,4-dihydro-2H-3,1-benzoxazin-6-yl)but-2-enenitrile]
inhibition at 3 µM ([1]; at 3000 nM, in the presence of 1 nM progesterone): 25%
IC50 [2]: 1390 nM
melting point: 213 to 215 °C

C/C(=C\C#N)c1ccc2c(c1)C(C)(C)OC(=O)N2 [Example 13, (2E)-3-(4,4-Dimethyl-2-oxo-1,4-dihydro-2H-3,1-benzoxazin-6-yl)but-2-enenitrile]
IC50 [1]: 38.2 nM
IC50 [2]: 48.1 nM
melting point: 230 to 232 °C

CCC/C(=C\C#N)c1ccc2c(c1)C1(CCCCC1)OC(=O)N2 [Example 20, (2E)-3-(2-Oxo-1,2-dihydrospiro[3,1-benzoxazine-4,1′-cyclohexan]-6-yl)hex-2-enenitrile]
IC50 [1]: 55.7 nM
IC50 [2]: 46.5 nM

CCC1(CC)OC(=O)Nc2ccc(/C(C)=C/C#N)cc21 [Example 22, (2E)-3-(4,4-Diethyl-2-oxo-1,4-dihydro-2H-3,1-benzoxazin-6-yl)but-2-enenitrile]
IC50 [1]: 49.6 nM
IC50 [2]: 150 nM
melting point: 159 to 160 °C

CC/C(=C\C#N)c1ccc2c(c1)C(CC)(CC)OC(=O)N2 [Example 23, (2E)-3-(4,4-Diethyl-2-oxo-1,4-dihydro-2H-3,1-benzoxazin-6-yl)pent-2-enenitrile]
IC50 [1]: 29.2 nM
IC50 [2]: 52.8 nM
melting point: 135 to 136 °C

CCC/C(=C\C#N)c1ccc2c(c1)C(CC)(CC)OC(=O)N2 [Example 25, (2E)-3-(4,4-Diethyl-2-oxo-1,4-dihydro-2H-3,1-benzoxazin-6-yl)hex-2-enenitrile]
IC50 [1]: 16.1 nM
IC50 [2]: 49.2 nM
melting point: 121 to 124 °C

CCC1(CC)OC(=O)Nc2ccc(/C(=C/C#N)C(C)C)cc21 [Example 27, (2E)-3-(4,4-Diethyl-2-oxo-1,4-dihydro-2H-3,1-benzoxazin-6-yl)-4-methylpent-2-enenitrile]
IC50 [1]: 208 nM
IC50 [2]: 1420 nM
melting point: 138 to 140 °C

CC/C(=C\C#N)c1ccc2c(c1)C(C)(C)OC(=O)N2 [Example 28, (2E)-3-(4,4-Dimethyl-2-oxo-1,4-dihydro-2H-3,1-benzoxazin-6-yl)pent-2-enenitrile]
inhibition at 0.03 µM ([1]; at 30 nM, in the presence of 1 nM progesterone): 70%
IC50 [2]: 89.8 nM

CCC/C(=C\C#N)c1ccc2c(c1)C(C)(C)OC(=O)N2 [Example 29, (2E)-3-(4,4-Dimethyl-2-oxo-1,4-dihydro-2H-3,1-benzoxazin-6-yl)hex-2-enenitrile]
inhibition at 0.3 µM ([1]; at 300 nM, in the presence of 1 nM progesterone): 84%
IC50 [2]: 104 nM

CC(C)/C(=C\C#N)c1ccc2c(c1)C(C)(C)OC(=O)N2 [Example 30, (2E)-3-(4,4-Dimethyl-2-oxo-1,4-dihydro-2H-3,1-benzoxazin-6-yl)-4-methylpent-2-enenitrile]
IC50 [1]: 84.6 nM
IC50 [2]: 777 nM
